According to patent US11066414B2, “Cot modulators and methods of use thereof” (Gilead Sciences, Inc., priority 2015, dated 2021):
Read-outs that look alike come from different tables or passages of the source.

Experiments:
TNFα = experiment: Cot Monocyte TNFα Cell Based Assay
Human Cot = Human Cot (Homo sapiens (Human), UniProt P41279); experiment: High Throughput Cot Biochemical Assay
[1] = Homo sapiens, Monocyte, read-out: EC50 TNF, LPS-stimulated human monocytes, TNFα
[2] = IC50 HTRF, Cot HTRF (TR-FRET) biochemical assay
[3] = Homo sapiens, Monocyte, read-out: EC50 TNF, LPS-stimulated human monocytes, TNFα TR-FRET
[4] = IC50 HTRF, Cot HTRF (TR-FRET KinEASE) biochemical assay, 400 μM ATP

Human Cot, sequence (P41279 30-397): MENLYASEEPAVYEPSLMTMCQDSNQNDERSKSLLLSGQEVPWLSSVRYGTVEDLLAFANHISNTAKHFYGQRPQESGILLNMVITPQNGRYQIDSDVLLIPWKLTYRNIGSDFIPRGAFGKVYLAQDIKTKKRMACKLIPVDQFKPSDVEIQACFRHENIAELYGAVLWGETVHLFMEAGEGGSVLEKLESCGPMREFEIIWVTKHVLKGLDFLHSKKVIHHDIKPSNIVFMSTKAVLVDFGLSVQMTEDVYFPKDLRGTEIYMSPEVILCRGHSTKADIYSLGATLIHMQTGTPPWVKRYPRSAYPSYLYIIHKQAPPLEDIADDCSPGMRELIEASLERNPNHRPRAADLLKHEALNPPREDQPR

SMILES	EC50 (TNFα; [1])	IC50 (Human Cot; [2])	further results
CC(C)(C)N1CCC(n2cc([C@@H](Nc3cc(Cl)c4ncc(C#N)c(Nc5ccc(F)c(Cl)c5)c4c3)c3ccc4c(c3)NCC4)nn2)CC1 [Example 51, (S)-6-(((1-(1-(tert-butyl)piperidin-4-yl)-1H-1,2,3-triazol-4-yl)(indolin-6-yl)methyl)amino)-8-chloro-4-((3-chloro-4-fluorophenyl)amino)quinoline-3-carbonitrile]	1560 nM	55 nM	–
CC(C)(C)CNc1c(C#N)cnc2c(Cl)cc(N[C@H](c3cn(C4CC4)nn3)c3cccc4ncsc34)cc12 [Example 418, (S)-6-((benzo[d]thiazol-7-yl(1-cyclopropyl-1H-1,2,3-triazol-4-yl)methyl)amino)-8-chloro-4-(neopentylamino)quinoline-3-carbonitrile]	45 nM	2 nM	–
Cc1n[nH]c2cccc([C@H](Nc3cc(Cl)c4ncc(C#N)c(NCC(C)(C)C)c4c3)c3cn(C4(C(F)F)CC4)nn3)c12 [Example 556, (S)-8-chloro-6-(((1-(1-(difluoromethyl)cyclo-propyl)-1H-1,2,3-triazol-4-yl)(3-methyl-1H-indazol-4-yl)methyl)amino)-4-(neopentyl-amino)quinoline-3-carbonitrile]	120 nM	8 nM	–
Cc1ccc([C@H](Nc2cc(C#N)c3ncc(C#N)c(NCC(C)(C)C)c3c2)c2cn(C3(C(F)(F)F)CC3)nn2)cn1 [Example 828, (S)-6-(((6-methylpyridin-3-yl)(1-(1-(trifluoromethyl)cyclopropyl)-1H-1,2,3-triazol-4-yl)methyl)amino)-4-(neopentylamino)quinoline-3,8-dicarbonitrile]	–	–	EC50 (TNFα; [3]): 253 nM; IC50 (Human Cot; [4]): 22 nM
Cn1ccc2c([C@H](Nc3cc(C#N)c4ncc(C#N)c(NCC(C)(C)C)c4c3)c3cn(C(CF)CF)nn3)cccc2c1=O [Example 880, (S)-6-(((1-(l,3-difluoropropan-2-yl)-1H-1,2,3-triazol-4-yl)(2-methyl-1-oxo-1,2-dihydroisoquinolin-5-yl)methyl)amino)-4-(neopentylamino)quinoline-3,8-dicarbonitrile]	–	–	EC50 (TNFα; read-out: EC50 TNF, LPS-stimulated human monocytes, TNFα TR-FRET): 80 nM; IC50 (Human Cot; read-out: IC50 HTRF, Cot HTRF (TR-FRET KinEASE) biochemical assay, 400 μM ATP): 3 nM
Cn1nccc1[C@H](Nc1cc(C#N)c2ncc(C#N)c(NCC(C)(C)C)c2c1)c1cn(C2(C(F)(F)F)CC2)nn1 [Example 678, (S)-6-(((1-methyl-1H-pyrazol-5-yl)(1-(1-(trifluoromethyl)cyclopropyl)-1H-1,2,3-triazol-4-yl)methyl)amino)-4-(neopentylamino)quinoline-3,8-dicarbonitrile]	131 nM	5 nM	–
[2H][C@@](Nc1cc(Cl)c2ncc(C#N)c(NCC(C)(C)C)c2c1)(c1cn(C2CC2)nn1)c1cccnc1F [Example 104, (S)-8-chloro-6-(((1-cyclopropyl-1H-1,2,3-triazol-4-yl)(2-fluoropyridin-3-yl)methyl-d)amino)-4-(neopentyl-amino)quinoline-3-carbonitrile]	99 nM	1 nM	–
CC(C)(C)CNc1c(C#N)cnc2c(C#N)cc(N[C@H](c3cn(C4(C(F)F)CC4)nn3)c3cccc4c(=O)n(CC(F)F)ccc34)cc12 [Example 870, (S)-6-(((2-(2,2-difluoroethyl)-1-oxo-1,2-dihydroisoquinolin-5-yl)(1-(1-(difluoromethyl)cyclopropyl)-1H-1,2,3-triazol-4-yl)methyl)amino)-4-(neopentylamino)quinoline-3,8-dicarbonitrile]	–	–	EC50 (TNFα; [3]): 169 nM; IC50 (Human Cot; [4]): 2 nM
N#Cc1cnc2c(Cl)cc(N[C@@H](c3cscn3)c3cn(Cc4ccccn4)nn3)cc2c1Nc1ccc(F)c(Cl)c1 [Example 316, (S)-8-chloro-4-((3-chloro-4-fluorophenyl)amino)-6-(((1-(pyridin-2-ylmethyl)-1H-1,2,3-triazol-4-yl)(thiazol-4-yl)methyl)amino)quinoline-3-carbonitrile]	298 nM	6 nM	–
Cn1cnc2cccc([C@H](Nc3cc(C#N)c4ncc(C#N)c(NCC(C)(C)C)c4c3)c3cn(C4(C(F)F)CC4)nn3)c21 [Example 523]	–	–	EC50 (TNFα; read-out: EC50 TNF, LPS-stimulated human monocytes, TNFα): 63 nM; IC50 (Human Cot; read-out: IC50 HTRF, Cot HTRF (TR-FRET) biochemical assay): 2 nM
